According to article PMC8991960, “A Bivalent Activatable Fluorescent Probe for Screening and Intravital Imaging of Chemotherapy‐Induced Cancer Cell Death” (Angewandte Chemie (International Ed. in English), 2021):

B1: Annexin V‐AF647: a 36 kDa protein marker of PtdSer in the presence of Ca2+ ions (protein, UniProt P08758 2-320, looked up)
Annexin A5: AQVLRGTVTDFPGFDERADAETLRKAMKGLGTDEESILTLLTSRSNAQRQEISAAFKTLFGRDLLDDLKSELTGKFEKLIVALMKPSRLYDAYELKHALKGAGTNEKVLTEIIASRTPEELRAIKQVYEEEYGSSLEDDVVGDTSGYYQRMLVVLLQANRDPDAGIDEAQVEQDAQALFQAGELKWGTDEEKFITIFGTRSVSHLRKVFDKYMTISGFQIEETIDRETSGNLEQLLLAVVKSIRSIPAYLAETLYYAMKGAGTDDHTLIRVMVSRSEIDLFNIRKEFRKNFATSLYSMIKGDTSGDYKKALLLLCGEDD
modifications: Alexa Fluor 647 label
notes: a 36 kDa protein marker of PtdSer in the presence of Ca2+ ions

What was measured:
MDA-MB-231 cells = test: Dose-dependency study with Apotracker Red; format: cell-based, human; details: 1 to 100 µM, 48 h, Apotracker Red 150 nM
Description: (§1) First, all drugs were tested in the 8 different cell lines to determine the percentages of Apotracker Red‐stained apoptotic cells compared to no treatment (Figure 3 c; Figure S8). […] All 5 drugs were tested at multiple concentrations (from 1 to 100 μM) and with incubation times up to 48 h to examine whether drugs could block cell proliferation at late stages (Figures S9–S13).
Edinburgh. Human peripheral blood neutrophils were isolated as previously described.[3] Briefly, whole blood was drawn into tubes containing anti -coagulant 3.6% sodium citrate (final concentration: 0.4% (w/v)) and centrifuged at 350 g for 20 min at r.t. with lowest acceleration and no brake. Platelet-rich plasma was rem oved, and leukocytes separated from erythrocytes by 0.6% dextran sedimentation in saline for 30 min at r.t. The upper layer was further fractionated using an isotonic discontinuous Percoll density gradient. Neutrophils were harvested from the 63% and 72.9% interface and cultured in Iscove’s Modified Dulbecco’s Medium (IMDM, Gibco) in 5% h um an A B se rum fo r 1 8 h at 37°C, 5% CO2 to in du ce spontaneous […]
(§2) Cell culture. MCF-7, A549, LnCap, MDA-MB-231, Jurkat T cells and PC3 cells were obtained from American Type Culture Collection (ATCC). HT29 cells were purchased from Merck (S i g m a Aldrich, UK). Mouse Mammary Tumour Virus –Polyoma Middle T antigen (MMTV -PyMT) cells were provided by the lab of Mikala Egeblad (CSHL, US). MMTV-PyMT, MCF-7, LnCap, MDA-MB-231 and Jurkat T cells were cultured in Roswell Park Memorial Institute (RPMI) 1640 Medium supplemented with 10% fetal bovine serum (FBS) , 100 U mL-1 penicillin and 0.1 mg mL-1 streptomycin. A549 and PC3 cells were cultured in Dublecco’s modified Eagle’s medium (DMEM) supplemented with 10% fetal bovine serum (FBS), 100 U mL-1 penicillin and 0.1 mg […]
(§3) Flow cytometry drug screen.

8 cancer cell lines = test: Classification of drugs by Apotracker Red (apoptosis) and CellTrace Violet (proliferation) staining; format: cell-based; details: 24 h treatment; for Drug group by Apotracker Red (apoptosis) and CV (proliferation) staining: 8 cell lines, single-dose screen; for Effect on cell proliferation (CellTrace Violet): CellTrace Violet 1 µM, Figure S8
Description: To corroborate the versatility of Apotracker Red, we built a screening platform including a total of 8 cancer cell lines of variable origin and pathogenesis: breast (MCF7, MDA‐MB231 and MMTV‐PyMT (mouse mammary tumour virus‐polyoma middle tumour‐antigen)[23]), lung (A549), prostate (PC3 and LnCap), blood cells (Jurkat) and colon (HT29). All cell lines were cultured under standard conditions and seeded with the fluorescent proliferation marker CellTrace^TM Violet (CV) in 96‐well plates (10–20×10^3 cells/well) for high‐throughput flow cytometry. After drug treatment (i.e., drug addition plus 24 h incubation), Apotracker Red was incubated for 10 min and fluorescence readings were directly acquired without any additional processing steps (Figure 3 a). […] Using this platform, we tested a collection of FDA‐approved drugs in all cancer cell lines and compared their ability to induce apoptosis using Apotracker Red as the reporter. Specifically, we included DNA alkylation agents (e.g., cyclophosphamide, cisplatin, 5‐fluorouracil, gemcitabine, temozolomide), proteasomal and mitotic inhibitors (e.g., bortezomib, docetaxel, paclitaxel) and antagonists of specific proteins (e.g., dexamethasone, tamoxifen; Figure 3 b).
as §1
Figure S8. Heatmap of relative inhibition of cell proliferation (as indicated by staining of CellTraceTM Violet) after treatment of cancer cell lines with different drugs. Data presented as an average of 3 independent experiments. Cells were stained on day 0 with CellTraceTM Violet (1 µM) and mean fluorescence intensities were determined on the 5L LSR after 24 h of treatment with the different drugs.
(1 picture or pasted object on this page, not shown here) […]
as §2, §3

[1] = tested on: breast cancer cells (MMTV-PyMT, MDA-MB231, MCF7); test: Dose-dependency study with Apotracker Red and CellTrace Violet; format: cell-based, mouse and human; details: 1 to 100 µM, 48 h, Apotracker Red 150 nM; 3 independent experiments
Description: as §1, with “S8). […] From this screen, we decided to select 5 drugs with potent pro‐apoptotic response in breast cancer, the most diagnosed cancer worldwide.[25] […] From group 2, we selected cyclophosphamide, tamoxifen, and 5‐fluorouracil as pro‐apoptotic molecules.” for “S8).”
Figure 4 Apotracker Red detects dose‐dependent chemotherapeutic‐induced apoptosis in mouse and human breast cancer cell lines. Cells were plated with 1 μM CV, treated with increasing concentrations (0, 1, 3, 10, 30 and 100 μM) of selected drugs for 48 h, and stained with Apotracker Red (150 nM) before data acquisition. Drugs: tamoxifen (beige), cisplatin (black), 5‐fluorouracil (green), gemcitabine (pink) and cyclophosphamide (red). Data presented as mean±SEM of 3 independent experiments.
Figure S9. Flow cytometry analysis of cisplatin in different breast cancer cell lines.
Representative flow cytometric plots (from three independent experiments) of MMTV-PyMT cells (a), MDA-MB231 cells (b) and MCF7 cells (c) after treatment with increasing concentrations of cisplatin for 48 h. Cells were stained on day 0 with CellTraceTM Violet (1 µ M) and with Apotracker Red (150 nM) before data acquisition.
(1 picture or pasted object on this page, not shown here)
Edinburgh. Human peripheral blood neutrophils were isolated as previously described.[3] […]
were centrifuged (300 g, 5 min, r.t.), washed once with PBS before addition of 0.05% Trypsin, 0.02% ethylenediaminetetraacetic acid (EDTA) in Hank’s balanced salt solution (HBSS) and incubation at 37°C for 5 min. […] Histograms and mean fluorescence intensities of […]

[2] = tested on: apoptotic cells (primary human neutrophils, Jurkat T cells); test: Divalent cation-independent staining of apoptotic cells; format: cell-based; details: 2.5 mM EDTA; Apotracker Red 150 nM, Annexin V-AF647 25 nM

| Molecule | Apotracker Red staining in MDA-MB-231 cells, dose-dependency study (MDA-MB-231 cells) | Drug group by Apotracker Red (apoptosis) and CV (proliferation) staining (8 cancer cell lines) | further results |
| --- | --- | --- | --- |
| O=P1(N(CCCl)CCCl)NCCCO1 (stereo not drawn) [cyclophosphamide] | weaker Apotracker Red‐staining | – | – |
| Cn1nnc2c(C(N)=O)ncn2c1=O [temozolomide] | – | inhibited cell proliferation but showed little or no induction of apoptosis | – |
| Nc1ccn([C@@H]2O[C@H](CO)[C@@H](O)C2(F)F)c(=O)n1 [gemcitabine] | weaker Apotracker Red‐staining | induced apoptosis and decreased cell proliferation | – |
| CC(C)C[C@H](NC(=O)[C@H](Cc1ccccc1)NC(=O)c1cnccn1)B(O)O [bortezomib] | – | induced apoptosis with little reduction of cell proliferation | Effect on cell proliferation (CellTrace Violet) (8 cancer cell lines): very minor effects on cell proliferation |
| O=c1[nH]cc(F)c(=O)[nH]1 [5-fluorouracil] | weaker Apotracker Red‐staining | induced apoptosis with little reduction of cell proliferation | – |
| CC(=O)O[C@H]1C(=O)[C@@]2(C)[C@H]([C@H](OC(=O)c3ccccc3)[C@]3(O)C[C@H](OC(=O)[C@H](O)[C@@H](NC(=O)c4ccccc4)c4ccccc4)C(C)=C1C3(C)C)[C@]1(OC(C)=O)CO[C@@H]1C[C@@H]2O [paclitaxel] | – | induced apoptosis with little reduction of cell proliferation | Effect on cell proliferation (CellTrace Violet) (8 cancer cell lines): very minor effects on cell proliferation |
| CC(=O)O[C@@]12CO[C@@H]1C[C@H](O)[C@@]1(C)C(=O)[C@H](O)C3=C(C)[C@@H](OC(=O)[C@H](O)[C@@H](NC(=O)OC(C)(C)C)c4ccccc4)C[C@@](O)([C@@H](OC(=O)c4ccccc4)[C@H]21)C3(C)C [docetaxel] | – | inhibited cell proliferation but showed little or no induction of apoptosis | – |
| C[C@@H]1C[C@H]2[C@@H]3CCC4=CC(=O)C=C[C@]4(C)[C@@]3(F)[C@@H](O)C[C@]2(C)[C@@]1(O)C(=O)CO [dexamethasone] | – | had no impact on proliferation or apoptosis | – |
| CC/C(=C(\c1ccccc1)c1ccc(OCCN(C)C)cc1)c1ccccc1 [tamoxifen] | – | induced apoptosis with little reduction of cell proliferation | Percentages of Apotracker Red staining, dose-dependency study [1]: highest percentages of Apotracker Red staining across all breast cancer cells |
| B1 | – | – | Staining of apoptotic cells after chelation of divalent cations [2]: failed to bind |
